Results: ChEMBL document CHEMBL1152388, “Identification of substituted pyrazolo[1,5-a]quinazolin-5(4H)-one as potent poly(ADP-ribose)polymerase-1 (PARP-1) inhibitors” (Bioorg Med Chem Lett, 2009)

Target: Poly [ADP-ribose] polymerase 1 (Homo sapiens, UniProt P09874)
Test: Inhibition of PARP1 by scintillation proximity assay

Chain of Poly [ADP-ribose] polymerase 1 (P09874 whole entry): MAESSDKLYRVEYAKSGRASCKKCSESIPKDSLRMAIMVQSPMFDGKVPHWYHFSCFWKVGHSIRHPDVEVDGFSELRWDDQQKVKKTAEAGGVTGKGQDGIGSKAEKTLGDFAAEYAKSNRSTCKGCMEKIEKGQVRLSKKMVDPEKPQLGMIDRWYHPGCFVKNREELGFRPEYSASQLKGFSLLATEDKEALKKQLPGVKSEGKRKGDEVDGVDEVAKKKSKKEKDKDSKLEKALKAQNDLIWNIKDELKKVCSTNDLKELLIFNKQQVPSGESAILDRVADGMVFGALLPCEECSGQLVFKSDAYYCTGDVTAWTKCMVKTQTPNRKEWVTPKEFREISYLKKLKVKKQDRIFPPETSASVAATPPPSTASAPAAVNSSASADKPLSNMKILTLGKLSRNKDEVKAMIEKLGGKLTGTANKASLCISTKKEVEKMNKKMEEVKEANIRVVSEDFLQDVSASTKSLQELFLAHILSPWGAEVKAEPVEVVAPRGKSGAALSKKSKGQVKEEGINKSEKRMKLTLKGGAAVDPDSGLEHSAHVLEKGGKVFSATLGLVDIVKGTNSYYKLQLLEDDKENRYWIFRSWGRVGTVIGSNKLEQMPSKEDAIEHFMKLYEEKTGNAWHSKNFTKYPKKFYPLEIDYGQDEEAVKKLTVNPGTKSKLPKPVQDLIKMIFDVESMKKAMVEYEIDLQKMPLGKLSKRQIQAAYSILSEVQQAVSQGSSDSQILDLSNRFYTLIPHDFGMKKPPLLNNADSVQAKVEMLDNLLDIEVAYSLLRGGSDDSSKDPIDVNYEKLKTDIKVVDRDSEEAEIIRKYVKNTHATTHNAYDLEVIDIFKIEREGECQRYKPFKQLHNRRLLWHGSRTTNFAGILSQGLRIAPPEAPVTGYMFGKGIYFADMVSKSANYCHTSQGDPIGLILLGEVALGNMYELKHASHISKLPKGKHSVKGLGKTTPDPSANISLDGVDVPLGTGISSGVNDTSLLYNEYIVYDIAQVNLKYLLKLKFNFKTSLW

Row | Compound | IC50 [nM]
1 | O=C(NCCN1CCOCC1)c1cc2[nH]c(=O)c3ccccc3n2n1 | 140
2 | CC(C)Cc1cc2[nH]c(=O)c3ccccc3n2n1 | 400
3 | O=c1[nH]c2cc(-c3ccc(Br)cc3)nn2c2ccccc12 | 700
4 | O=c1[nH]c2cc(-c3cccs3)nn2c2ccccc12 | 150
5 | O=C(c1cc2[nH]c(=O)c3ccccc3n2n1)N1CCN2CCC[C@H]2C1 | 600
6 | N#Cc1ccc(-c2cc3[nH]c(=O)c4ccccc4n3n2)cc1 | > 1000
7 | CN1CCC(CNC(=O)c2cc3[nH]c(=O)c4ccccc4n3n2)CC1 | 70
8 | O=C(c1cnn2c1[nH]c(=O)c1ccccc12)N1CCCNCC1 | > 1000
9 | CN1CCN(C(=O)c2ccc(-c3cc4[nH]c(=O)c5ccccc5n4n3)cc2)CC1 | 1400
10 | O=c1[nH]c2cc(-c3cccc(Cl)c3)nn2c2ccccc12 | 500
11 | CN1CCCN(C(=O)c2cc3[nH]c(=O)c4ccccc4n3n2)CC1 | 10
12 | COc1cc(-c2cc3[nH]c(=O)c4ccccc4n3n2)cc(OC)c1OC | 30
13 | O=C(c1ccc(-c2cc3[nH]c(=O)c4ccccc4n3n2)cc1)N1CCN2CCC[C@H]2C1 | 2500
14 | CN1CCN(C(=O)c2cccc(-c3cc4[nH]c(=O)c5ccccc5n4n3)c2)CC1 | 1000
15 | O=c1[nH]c2cc(-c3ccco3)nn2c2ccccc12 | 200
16 | O=c1[nH]c2cc(-c3cccc(Br)c3)nn2c2ccccc12 | 600
17 | O=c1[nH]c2cc(-c3ccc(Cl)cc3)nn2c2ccccc12 | 500
18 | CN1CCC(CNC(=O)c2cc3[nH]c(=O)c4ccccc4n3n2)C1 (stereo not given) | 80
19 | CC(C)(C)c1ccc(-c2cc3[nH]c(=O)c4ccccc4n3n2)cc1 | > 1000
20 | COc1cccc(-c2cc3[nH]c(=O)c4ccccc4n3n2)c1OC | 100
21 | O=C(c1cccc(-c2cc3[nH]c(=O)c4ccccc4n3n2)c1)N1CCN2CCC[C@H]2C1 | 500
22 | COc1ccc(-c2cc3[nH]c(=O)c4ccccc4n3n2)c(OC)c1 | 200

Row | Compound | IC50 [nM]
23 | O=c1[nH]c2cc(-c3cccc(F)c3)nn2c2ccccc12 | > 1000
24 | CN(C)CCN(C)C(=O)c1ccc(-c2cc3[nH]c(=O)c4ccccc4n3n2)cc1 | 1300
25 | O=c1[nH]c2cc(C3CCCCC3)nn2c2ccccc12 | 200
26 | O=c1[nH]c2cc(-c3ccc(OC(F)(F)F)cc3)nn2c2ccccc12 | > 1000
27 | Cc1ccc(-c2cc3[nH]c(=O)c4ccccc4n3n2)cc1 | 500
28 | O=C(c1cc2[nH]c(=O)c3ccccc3n2n1)N1CCC(CN2CCOCC2)CC1 | 1100
29 | Cc1cc2[nH]c(=O)c3ccccc3n2n1 | 300
30 | O=c1[nH]c2cc(-c3ccccc3)nn2c2ccccc12 | 100
31 | CCc1ccc(-c2cc3[nH]c(=O)c4ccccc4n3n2)cc1 | 500
32 | O=C(c1cc2[nH]c(=O)c3ccccc3n2n1)N1CCN(CC2CC2)CC1 | 300
33 | CN(C)CCN(C)C(=O)c1cc2[nH]c(=O)c3ccccc3n2n1 | 100
34 | CN1CCCN(C(=O)c2cnn3c2[nH]c(=O)c2ccccc23)CC1 | > 1000
35 | CN1CCN(C(=O)c2cnn3c2[nH]c(=O)c2ccccc23)CC1 | > 1000
36 | CN1CCN(C(=O)c2cc3[nH]c(=O)c4ccccc4n3n2)CC1 | 300
37 | O=C(NCCN1CCOCC1)c1cnn2c1[nH]c(=O)c1ccccc12 | > 1000
38 | CN(C)CCN(C)C(=O)c1cccc(-c2cc3[nH]c(=O)c4ccccc4n3n2)c1 | 800
39 | O=C(c1cc2[nH]c(=O)c3ccccc3n2n1)N1CCCNCC1 | 30
40 | O=c1[nH]c2cc(-c3ccc(F)cc3)nn2c2ccccc12 | > 1000
41 | CCCc1ccc(-c2cc3[nH]c(=O)c4ccccc4n3n2)cc1 | > 1000
42 | O=C(NCCC1(N2CCOCC2)CCCC1)c1cc2[nH]c(=O)c3ccccc3n2n1 | 90
43 | COc1ccc(-c2cc3[nH]c(=O)c4ccccc4n3n2)cc1OC | 200
44 | O=C(NCCCN1CCOCC1)c1cc2[nH]c(=O)c3ccccc3n2n1 | 140

System: HeLa
Test: Inhibition of PAR polymer formation in H2O2-stimulated human HeLa cells
Format: functional, cell-based

Row | Compound | EC50 [µM]
45 | CN1CCCN(C(=O)c2cc3[nH]c(=O)c4ccccc4n3n2)CC1 | 3.9
